Assay results from US7425577B2, “Lipase-colipase inhibitor” (Forskarpatent 1 SYD AB, priority 2003, dated 2008).
“And” between values parts separate entries of the source, which are not always exact repeats. Equal entries are not always repeated. “Also recorded” adds a separate entry of the source.

Key:
Pancreatic lipase = Pancreatic lipase activity and protein expression in pancreas after 5 days of treatment; type: in vivo, rat; details: pancreas of rats given 50 μl for 5 days by gastric gavage
Protocol: At the end of experiment, rats were killed and the pancreas collected for assay of lipase activity and protein expression. Lipase activity was determined with pH stat titration (Mettle Components DK 10, DK 11, DV11) using tributyrin dispersed in bile salt as substrate (Borgström & Erlanson). Lipase expression was analysed by western blot.
Pancreas was homogenized in 0.5% digitonin buffer containing 10 mM sodium phosphate (pH6.0) and 1 mini complete tablet on ice. After centrifuge at 14000 g, 4° C. for 10 min, the supernatant was collected and heating at 65° C., 15 min for inactivate endogenous lipase. The protein amount was measured by BCA method. Equal amount (50 μg) protein was load on 10% SDS-polyacrylamide gels, transferred to the nitrocellulose membranes and then incubated with anti-lipase antibody in the dilution 1:1000 at 4° C. overnight. Pancreatic lipase protein was detected using a horseradish peroxidase-conjugated donkey anti-rabbit antibody (1:8000) for 60 min at room temperature followed with an enhanced chemiluminescence (Pierce).

[1] = Blood lipids analysis after 5 days of oral administration; type: in vivo, female Sprague-Dawley rats; details: 50 μl orally for 5 days
Protocol: Female female Sprague-Dawley rats were used for all experiments. Rats were housed in a temperature-controlled room (22±1° C.) under a 12-h light (6:00-18:00)/12-h cycle, given free access to water, and fed an libitum on a standard chow unless otherwise stated for a high-fat diet experiment. All procedures using animals were approved by the local ethics committee and followed the guidelines for experiments in animals (European Economic Community Council Directive 86/609/EEC).
Blood was drawn in rats from the intra-orbital bullar plexus under anaesthesia and collected in ice-cold tubes. Serum was obtained by centrifugation at 3000 g for 15 min at 4° C. […] Plasma triglycerides was determined with an Sigma diagnostics kit. Plasma fatty acids were measured by NEFAC kit (Wako chemicals GmbH, Neuss, Germany). Plasma PYY (3-36) and leptin were measured with the PYY Enzyme Immunossay kit and leptin Enzyme Immunossay (Phoenix Pharmaceuticals, USA)

lipase = molecular target: T1, lipase (Homo sapiens, UniProt P04118+P16233); assay: Inhibition of lipase activity in vitro assay, tributyrin or Intralipid as substrates (FIGS. 1A and 1B); type: biochemical; details: for Inhibition of lipase activity in vitro: tributyrin or intralipid as substrates
T1 sequence (P16233 17-465): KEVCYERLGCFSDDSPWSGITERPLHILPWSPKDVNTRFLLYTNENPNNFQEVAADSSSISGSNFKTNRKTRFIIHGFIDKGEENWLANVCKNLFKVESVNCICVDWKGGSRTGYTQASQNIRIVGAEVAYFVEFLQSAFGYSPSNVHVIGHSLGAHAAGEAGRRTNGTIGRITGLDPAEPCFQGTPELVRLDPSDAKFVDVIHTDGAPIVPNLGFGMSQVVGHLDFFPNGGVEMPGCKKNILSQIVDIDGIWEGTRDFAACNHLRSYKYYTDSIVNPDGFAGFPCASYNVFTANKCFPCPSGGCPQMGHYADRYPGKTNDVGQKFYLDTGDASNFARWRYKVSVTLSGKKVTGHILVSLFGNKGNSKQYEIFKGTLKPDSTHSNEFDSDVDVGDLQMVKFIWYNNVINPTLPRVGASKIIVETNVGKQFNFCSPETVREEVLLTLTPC
T1 sequence (P04118 23-112): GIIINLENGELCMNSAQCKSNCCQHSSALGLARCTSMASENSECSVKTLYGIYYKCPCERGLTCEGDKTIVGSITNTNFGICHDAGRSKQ

[2] = In vivo Intralipid feeding test: free fatty acids and triglycerides in blood serum; set-up: species or system Sprague-Dawley rats
Protocol: Sprague-Dawley rats weighing 200-220 g, stored in cages using a 12 hours of light/12 hours of darkness cycle were used. They had free admittance to food and water prior to the test. The day prior a test the rats were fasted, and were anaesthetised in the morning using diethyl ether. 1 ml of Intralipid (200 mg/ml) with and without inhibitor was fed to the rats by means of a syringe through the mouth and ending in the stomach. Blood samples were taken at time 0, prior to the test start, and then after 30, 60, 120 and 180 minutes after feeding with Intralipid. After centrifugation, serum was separated and stored at −20° C. for analysis. Analyses of free fatty acids, triglycerides and total cholesterol were made. The test has been repeated, also using different dosages of the inhibitors tested.

## CCCCCCCCCCCCOCCN(C)C [dimethylaminoethyl dodecyl ether]
Pancreatic lipase
  Pancreatic lipase activity vs controls: not changed
  Pancreatic lipase protein expression vs controls (western blot): slightly reduced; also recorded: reduced
[1]
  Serum (plasma) cholesterol level vs vehicle: no effect; also recorded: no difference
  Serum fatty acids level vs vehicle: decreased serum triglyceride and fatty acids, but this was not statistic significance; also recorded: decreased
  Serum triglyceride level vs vehicle: decreased serum triglyceride and fatty acids, but this was not statistic significance; also recorded: decreased
lipase; Intralipid as substrate
  Dose at which the maximum inhibition of lipase activity was seen: 80 µmol
lipase; tributyrin as substrate
  Dose at which the maximum inhibition of lipase activity was seen: 40 µmol
lipase
  Inhibition of lipase activity in vitro: completely inhibited lipase activity
lipase; listed as Dimethylaminoethyl dodecyl ether
  Inhibition of lipase activity in vitro: inhibited lipase activity in a dose-depended manner
[2]; rat blood serum, 0 min (prior to Intralipid feeding)
  Triglycerides: 103 mg/dL
[2]; rat blood serum, 0 min (prior to Intralipid feeding), listed as Compound C12
  Free fatty acids: 0.56 mmol and 0.57 mmol
[2]; rat blood serum, 30 min after 1 ml Intralipid with inhibitor
  Triglycerides: 95 mg/dL
[2]; rat blood serum, 30 min after 1 ml Intralipid with inhibitor, listed as Compound C12
  Free fatty acids: 0.63 mmol and 0.67 mmol
[2]; rat blood serum, 60 min after 1 ml Intralipid with inhibitor
  Triglycerides: 98 mg/dL
[2]; rat blood serum, 60 min after 1 ml Intralipid with inhibitor, listed as Compound C12
  Free fatty acids: 0.70 mmol and 0.72 mmol
[2]; rat blood serum, 120 min after 1 ml Intralipid with inhibitor
  Triglycerides: 95 mg/dL
[2]; rat blood serum, 120 min after 1 ml Intralipid with inhibitor, listed as Compound C12
  Free fatty acids: 0.60 mmol and 0.72 mmol
[2]; rat blood serum, 180 min after 1 ml Intralipid with inhibitor
  Triglycerides: 77 mg/dL
[2]; rat blood serum, 180 min after 1 ml Intralipid with inhibitor, listed as Compound C12
  Free fatty acids: 0.62 mmol and 0.74 mmol
[2]; rat, dose of active compound 10 μg
  Free fatty acids (% of control): 83.7 % of control
[2]; rat, dose of active compound 10 μg, dose 0: 1.45
  Free fatty acids: 1.25 mM
[2]; rat, dose of active compound 50 μg
  Free fatty acids (% of control): 56.1 % of control
[2]; rat, dose of active compound 50 μg, dose 0: 1.45
  Free fatty acids: 0.83 mM
[2]; rat, dose of active compound 100 μg
  Free fatty acids (% of control): 57.4 % of control
[2]; rat, dose of active compound 100 μg, dose 0: 1.45
  Free fatty acids: 0.85 mM
[2]; rat, dose of active compound 200 μg
  Free fatty acids (% of control): 74.3 % of control
[2]; rat, dose of active compound 200 μg, dose 0: 1.45
  Free fatty acids: 1.1 mM
